Test results as given in ChEMBL document CHEMBL1128821, “Evaluation of differential hypoxic cytotoxicity and electrochemical studies of nitro 5-deazaflavins” (Bioorg Med Chem Lett, 1995).

Tests used:
V79 [1] = assay: Differential hypoxic cytotoxicity towards chinese hamster cells (V79) using MTT assay under aerobic conditions; format: functional, cell-based; conditions: Cricetulus griseus
V79 [2] = assay: Differential hypoxic cytotoxicity towards chinese hamster cells (V79) using MTT assay under anaerobic conditions; format: functional, cell-based; conditions: Cricetulus griseus

`CCCCCCCCCCCCn1c2nc(=O)[nH]c(=O)c-2cc2cc([N+](=O)[O-])ccc21` showed an IC50 (V79 [1]) of 16 µM and an IC50 (V79 [2]) of 22 µM.

With `CCCCCCCCn1c2nc(=O)n(-c3ccccc3)c(=O)c-2cc2ccc([N+](=O)[O-])cc21` the IC50 (V79 [1]) was 6.1 µM and the IC50 (V79 [2]) was 1.2 µM.

`CCCCCCCCCCCCn1c2nc(=O)[nH]c(=O)c-2cc2ccc([N+](=O)[O-])cc21` showed an IC50 (V79 [1]) of 300 µM and an IC50 (V79 [2]) of 190 µM.

With `CCCCCCCCn1c2nc(=O)n(-c3ccccc3)c(=O)c-2cc2ccccc21` the IC50 (V79 [1]) was over 1000 µM and the IC50 (V79 [2]) was over 1000 µM.

For `CCCCCCCCn1c2nc(=O)n(-c3ccccc3)c(=O)c-2cc2cccc([N+](=O)[O-])c21`, the IC50 (V79 [1]) was 1.7 µM and the IC50 (V79 [2]) was 3.7 µM.

For `CCCCCCCCCCCCn1c2nc(=O)n(C)c(=O)c-2cc2ccc([N+](=O)[O-])cc21`, the IC50 (V79 [1]) was 130 µM and the IC50 (V79 [2]) was 61 µM.

`CCCCCCCCCCCCn1c2nc(=O)[nH]c(=O)c-2cc2cccc([N+](=O)[O-])c21` showed an IC50 (V79 [1]) of 1.9 µM and an IC50 (V79 [2]) of 3.6 µM.

For `CCCCCCCCn1c2nc(=O)n(-c3ccccc3)c(=O)c-2cc2c([N+](=O)[O-])cccc21`, the IC50 (V79 [1]) was 3.6 µM and the IC50 (V79 [2]) was 0.56 µM.

Work on `CCCCCCCCCCCCn1c2nc(=O)[nH]c(=O)c-2cc2c([N+](=O)[O-])cccc21` yielded an IC50 (V79 [1]) of 4.3 µM and an IC50 (V79 [2]) of 1.1 µM.

For `CCCCCCCCCCCCn1c2nc(=O)n(C)c(=O)c-2cc2cc([N+](=O)[O-])ccc21`, the IC50 (V79 [1]) was over 1000 µM and the IC50 (V79 [2]) was over 1000 µM.

In the case of `CCCCCCCCCCCCn1c2nc(=O)[nH]c(=O)c-2cc2ccccc21`, the IC50 (V79 [1]) is reported as over 1000 µM and the IC50 (V79 [2]) is reported as over 1000 µM.

`CCCCCCCCCCCCn1c2nc(=O)n(C)c(=O)c-2cc2cccc([N+](=O)[O-])c21` was tested, and the IC50 (V79 [1]) was over 1000 µM and the IC50 (V79 [2]) was over 1000 µM.

Work on `CCCCCCCCCCCCn1c2nc(=O)n(C)c(=O)c-2cc2c([N+](=O)[O-])cccc21` yielded an IC50 (V79 [1]) of 7.2 µM and an IC50 (V79 [2]) of 2.9 µM.

In the case of `CCCCCCCCn1c2nc(=O)n(-c3ccccc3)c(=O)c-2cc2cc([N+](=O)[O-])ccc21`, the IC50 (V79 [1]) is reported as 27 µM and the IC50 (V79 [2]) is reported as 19 µM.

Molecule `CCCCCCCCCCCCn1c2nc(=O)n(C)c(=O)c-2cc2ccccc21` has an IC50 (V79 [1]) of over 1000 µM and an IC50 (V79 [2]) of over 1000 µM.

For `NC(=O)N/N=C/c1ccc([N+](=O)[O-])o1` [NITROFURAZONE], the IC50 (V79 [1]) was 740 µM and the IC50 (V79 [2]) was 270 µM.
